What was measured:
[1] = target: T1, Progesterone receptor (Homo sapiens) (UniProt P06401)
T1 sequence (whole entry): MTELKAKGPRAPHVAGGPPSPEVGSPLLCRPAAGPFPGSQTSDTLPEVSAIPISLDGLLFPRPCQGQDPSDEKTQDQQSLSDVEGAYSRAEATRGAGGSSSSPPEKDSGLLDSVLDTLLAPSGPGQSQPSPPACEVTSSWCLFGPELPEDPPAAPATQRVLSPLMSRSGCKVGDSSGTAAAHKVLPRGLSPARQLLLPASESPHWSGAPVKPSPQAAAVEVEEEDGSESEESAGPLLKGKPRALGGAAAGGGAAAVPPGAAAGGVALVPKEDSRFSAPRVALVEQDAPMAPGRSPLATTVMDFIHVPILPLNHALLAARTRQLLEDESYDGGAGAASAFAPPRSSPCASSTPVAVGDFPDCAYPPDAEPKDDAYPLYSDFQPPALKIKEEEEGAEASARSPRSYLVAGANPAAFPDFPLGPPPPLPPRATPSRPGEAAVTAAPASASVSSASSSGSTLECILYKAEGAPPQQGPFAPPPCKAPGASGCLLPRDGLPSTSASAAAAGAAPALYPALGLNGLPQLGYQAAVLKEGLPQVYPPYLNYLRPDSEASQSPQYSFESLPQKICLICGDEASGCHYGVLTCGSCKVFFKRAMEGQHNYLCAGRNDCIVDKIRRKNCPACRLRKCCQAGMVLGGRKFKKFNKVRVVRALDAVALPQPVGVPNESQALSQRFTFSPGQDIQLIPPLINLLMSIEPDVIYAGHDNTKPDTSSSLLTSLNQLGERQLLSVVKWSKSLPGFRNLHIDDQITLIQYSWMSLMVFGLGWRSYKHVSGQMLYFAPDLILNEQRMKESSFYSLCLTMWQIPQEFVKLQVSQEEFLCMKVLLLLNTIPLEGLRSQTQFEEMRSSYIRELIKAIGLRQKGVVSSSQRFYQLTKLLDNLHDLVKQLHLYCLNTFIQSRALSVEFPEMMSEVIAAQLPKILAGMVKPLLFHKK
Description: Antagonist activity against human Progesterone receptor by displacement of radioligand

[2] = target: T2, Mineralocorticoid receptor (Homo sapiens) (UniProt P08235)
T2 sequence (whole entry): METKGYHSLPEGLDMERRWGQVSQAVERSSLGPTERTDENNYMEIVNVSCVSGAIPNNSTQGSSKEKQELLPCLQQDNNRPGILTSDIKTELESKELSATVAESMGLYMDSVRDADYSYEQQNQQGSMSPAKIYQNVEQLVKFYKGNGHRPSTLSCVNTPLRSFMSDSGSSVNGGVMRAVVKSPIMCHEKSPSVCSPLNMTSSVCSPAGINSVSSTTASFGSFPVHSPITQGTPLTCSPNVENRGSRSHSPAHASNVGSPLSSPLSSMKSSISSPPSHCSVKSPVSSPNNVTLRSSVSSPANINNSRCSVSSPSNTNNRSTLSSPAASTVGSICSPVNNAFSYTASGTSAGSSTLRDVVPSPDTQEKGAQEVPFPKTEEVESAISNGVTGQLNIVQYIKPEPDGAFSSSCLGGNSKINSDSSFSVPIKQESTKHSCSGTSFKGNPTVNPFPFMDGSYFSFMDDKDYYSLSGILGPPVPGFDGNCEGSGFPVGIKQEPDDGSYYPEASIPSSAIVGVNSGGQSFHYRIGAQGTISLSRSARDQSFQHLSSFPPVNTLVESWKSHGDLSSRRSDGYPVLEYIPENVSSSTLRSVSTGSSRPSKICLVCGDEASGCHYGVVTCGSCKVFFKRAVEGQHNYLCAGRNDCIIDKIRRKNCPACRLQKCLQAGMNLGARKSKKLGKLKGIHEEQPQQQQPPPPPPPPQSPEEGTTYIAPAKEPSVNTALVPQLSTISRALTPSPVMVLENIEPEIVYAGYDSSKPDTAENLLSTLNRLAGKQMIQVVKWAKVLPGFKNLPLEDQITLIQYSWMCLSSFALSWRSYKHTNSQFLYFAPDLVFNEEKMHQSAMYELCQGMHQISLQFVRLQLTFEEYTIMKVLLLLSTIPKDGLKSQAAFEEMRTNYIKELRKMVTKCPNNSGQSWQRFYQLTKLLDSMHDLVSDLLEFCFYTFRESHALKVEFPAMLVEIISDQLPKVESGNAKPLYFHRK
Description: Antagonist activity against human mineralocorticoid receptor as displacement of radioligand

For `CC#C[C@]1(O)CCC2C3CCC4=CC(=O)CC[C@]4(Cc4ccc(C)cc4)C3=CC[C@@]21C` (some centres not stated), the Kif [1] was > 1000 nM.

With `O=C1CC[C@@]2(Cc3ccccc3)c3ccc(O)cc3CC[C@@H]2C1` the Kif [2] was > 1000 nM.

From ChEMBL document CHEMBL1135457 (J Med Chem, 2002)
